The conditions of data set [1]: cited from earlier work; for BBB penetrability: Table 1; for penetration of blood brain barriers: statement in text.
The subject of data set [2] is Quis receptors. Conditions: Table 1, *: not screened in chick retina assay; estimated from other reported electrophysiological data; cited from earlier work.
Data set [3] deals with NMDA receptors. Conditions: Table 1, *: not screened in chick retina assay; estimated from other reported electrophysiological data; cited from earlier work.
For data set [4], the system named is KA receptors. Conditions: Table 1, *: not screened in chick retina assay; estimated from other reported electrophysiological data; cited from earlier work.
The subject of data set [5] is KA receptors. As to the kind of experiment: Chick retina assay: protection against excitotoxic action of KA. The class given is cell-based. The text has this: (§1) Antagonist potencies were established in a chick retina assay which has
(§2) (NMDA, KA and Quis) for excitotoxic properties and EAA antagonists for
(§3) potency in protecting the retina against the excitotoxic action of such
(§4) agonists. The concentration of antagonist required to totally prevent the
(§5) toxic action of an agonist was used to compare antagonists for potency.
(§6) For purposes of illustration, the data were normalized by assigning a
(§7) EAA antagonist properties have been described in each category. Antagonis
(§8) potencies were established in a chick retina assay which has been used by
(§9) Quis) for excitotoxic properties and EAA antagonists for potency in
(§10) protecting the retina against the excitotoxic action of such agonists.
(§11) concentration of antagonist required to totally prevent the toxic action
(§12) of an agonist was used to compare antagonists for potency. For purposes o
(§13) to kynurenic acid vs KA (see table 1) and all other values were adjusted

The subject of data set [6] is EAA receptors (NMDA, KA, Quis). To be noted: cited from earlier work.
Data set [7] concerns Quis receptors. As to the kind of experiment: Chick retina assay: protection against excitotoxic action of Quis. Type of data set: cell-based.
Description: as §1, §2, §3, §4, §5, §6, §7, §8, §9, §10, §11, §12, §13

Data set [8] deals with NMDA receptors. Description: Chick retina assay: protection against excitotoxic action of NMDA. Type of data set: cell-based.
Description: as §1, §2, §3, §4, §5, §6, §7, §8, §9, §10, §11, §12, §13

Data set [9] deals with emesis associated with cancer chemotherapy. To be noted: cited from earlier work; for side effects: high doses; for anti-emetic effect in cancer chemotherapy: in vivo.
Data set [10] concerns 5-HT M receptors. Conditions: cited from earlier work.
In data set [11] the test system is motion sickness or vertigo. Conditions: in vivo; cited from earlier work.
Data set [12] concerns humans. To be noted: humans; cited from earlier work.
Data set [13] relates to dogs. Description: Emesis induction by glutamate in dogs; blockage by D-AP5 or Kyn. Conditions: Kyn 75 mg/kg SC. The class given is in vivo, dog.
In data set [14] the test system is ferrets. As to the kind of experiment: Emesis induction by cisplatin (8 mg/kg IV) in ferrets; blockage by Kyn. Type of data set: in vivo, ferret. Conditions: cisplatin 8 mg/kg IV, ferrets. How it is done: Four ferrets (a control group) received 8 mg/kg IV cisplatin, a chemotherapeutic drug which has a powerful emetic effect.
Nine ferrets were treated with cisplatin (8 mg/kg IV), and with Kyn, either by bolus (one-shot) injection using 150 mg/kg, or by continuous IV infusion using 50 mg/kg/hour.

For data set [15], the system named is dogs. As to the kind of experiment: Emesis induction by KA in dogs; blockage by Kyn. The class given is in vivo, dog. How it is done:
Kainic acid (KA), an EAA agonist which triggers the KA class of non-NMDA receptors, was administered to dogs at dosages in the vicinity of 0.5 mg/kg SC.

Data set [16] concerns neurons. To be noted: cited from earlier work.
Data set [17] has as its system patients. To be noted: high blood concentrations, humans; cited from earlier work.
The test system of data set [18] is area postrema-CVO neurons. To be noted: cited from earlier work.
The mark [19] stands for this setting: Table 1, normalized to kynurenic acid vs KA = 1.
Setting [20] is: Table 2, normalized to kynurenic acid vs KA = 1.
Setting [21] is: Kyn 50 mg/kg/hour continuous IV infusion.

Read-outs that look alike come from different tables or passages of the source.

Consider `O=C(O)C1CN(C/C=C/P(=O)(O)O)CCN1` (centres unmarked) [CPP-ene], for which, in data set [1], the BBB penetrability entry is listed as “moderate” and the “penetration of blood brain barriers” value was “do not readily penetrate blood brain barriers”. Also, the “EAA antagonist potency vs Quis” value in data set [2] is 0. Also, the “EAA antagonist potency vs NMDA” value in data set [3] is listed as 200. The “EAA antagonist potency vs KA” value in data set [4] is reported as 0.

With `C/C(=C\C(N)C(=O)O)CP(=O)(O)O` (centres unmarked) [CGP 37849], the BBB penetrability entry in data set [1] was “moderate”. In addition, the “EAA antagonist potency vs Quis” value in [2] was 0. Further, in [3], the “EAA antagonist potency vs NMDA” value is reported as 200. In data set [4], the “EAA antagonist potency vs KA” value is recorded as 0.

Turning to `O=C(O)c1cc(O)c2ccc(Cl)cc2n1` [7-Cl-kynurenate, 7-chloro-kynurenic acid], the “EAA antagonist potency vs KA” value in data set [5] (setting [19]) stood at 4. In addition, in data set [1], the BBB penetrability result is recorded as “very low” and the “penetration of blood brain barriers” value is reported as “do not penetrate blood-brain barriers”. Besides, the “EAA receptor subtype order of blockade” value in [6] was “NMDA>KA>Quis”. Also, the “EAA antagonist potency vs Quis” value in [7] (setting [19]) is 3. In addition, in [8] (setting [19]), the “EAA antagonist potency vs NMDA” value was 10.

On to `CN1CCN(CCCN2c3ccccc3Sc3ccc(Cl)cc32)CC1` [compazine], for which, in data set [9], the side effects result was “severe side effects such as abnormal motor movements, muscle rigidity, and tremors”; the “anti-emetic effect in cancer chemotherapy” value (from here on “anti-emetic effect”) is “only weakly active as anti-emetics”.

Regarding `CCN(CC)CCNC(=O)c1cc(Cl)c(N)cc1OC` [metoclopramide], the “anti-emetic effect” value in data set [9] is reported as “only partially effective”. Further, the “5-HT M receptor antagonism” value in data set [10] is listed as “only a weak 5-HT M receptor antagonist”.

`CN(C)CCOC(c1ccccc1)c1ccccc1` [dimenhydrinate]: in data set [11], the “effect against motion sickness or vertigo” value was “relatively ineffective unless taken before a boat or airplane ride or other motion begins, or before the onset of vertigo”; the “effect on nausea and vomiting caused by other factors” value is listed as “not effective”.

As to `CN1CC[C@@]23CCCC[C@@H]2[C@@H]1Cc1ccc(O)cc13` [dextrorphan], in [8] (setting [20]), the “EAA antagonist potency vs NMDA” value is 40.

For `CC(C(O)c1ccc(O)cc1)N1CCC(Cc2ccccc2)CC1` (centres unmarked) [ifenprodil], the “EAA antagonist potency vs NMDA” value in [8] (setting [19]) stood at 100.

Regarding `CCNC1(c2cccs2)CCCCC1=O` (racemic) [tilletamine], in [12], the psychotic effects entry was “psychotic effects”. Besides, in data set [1], the “penetration of blood brain barriers” value is on record as “permeate easily through BBB's”. Also, the “EAA antagonist potency vs NMDA” value in [8] (setting [20]) amounted to 200.

As to `COc1ccc2c(c1)[C@]13CCCC[C@@H]1[C@H](C2)N(C)CC3` [dextromethorphan], the “EAA antagonist potency vs NMDA” value in data set [8] (setting [20]) came out at 20.

With `N[C@H](CCCP(=O)(O)O)C(=O)O` [D-AP5, D-2-amino-5-phosphonopentanoate], in data set [8] (setting [19]), the “EAA antagonist potency vs NMDA” value was 40.

Take `O=C(O)c1cc(=O)c2ccccc2[nH]1` [kynurenic acid]: the “blockage of glutamate-induced emesis” value in [13] is given as “could be blocked”. Besides, in [14] (setting [21]), the “behavior/malaise after cisplatin, treated by continuous infusion” value is “displayed playful behavior, sought and ate food, did not appear ill”; the “vomiting after cisplatin, treated by continuous infusion” value is listed as “did not vomit”. Moreover, in [14] (Kyn 150 mg/kg bolus), the “appeared as ill as the control animals, treated by bolus injection” value was “only one appeared to be as ill as the control animals”; the “vomiting and malaise after cisplatin, treated by bolus injection” value is “Three of the ferrets treated by bolus injection vomited once or twice and showed transient malaise”. Further, the “EAA antagonist potency vs KA” value in data set [5] (setting [19]) was 1. For the same molecule, in [6], the “EAA receptor subtype order of blockade” value is “NMDA>KA>Quis”. The “EAA antagonist potency vs Quis” value in data set [7] (setting [19]) is 1. Besides, the “blockage of KA-induced emesis” value in data set [15] (50 mg/kg SC) is recorded as “emesis was blocked”. Also, in [8] (setting [19]), the “EAA antagonist potency vs NMDA” value is recorded as 4.

`CN1[C@@H]2CC[C@H]1C[C@@H](OC(c1ccccc1)c1ccccc1)C2` [benztropine]: the “reduction of the neurotoxicity of NMDA antagonists that penetrate the BBB” value (“reduction” for short) in [16] (in vivo) is recorded as “effective in reducing the neurotoxicity”.

Consider `N[C@@H](CC(=O)O)C(=O)O` [aspartate], for which the emetic properties entry in data set [17] is on record as “induce vomiting”. Also, the “emesis at a toxic dose” value in data set [18] (dogs and monkeys) is “first causes the animal to vomit before continued excitatory stimulation destroys the area postrema-CVO neurons”. The neurotoxic effects entry in data set [18] (subcutaneous, immature animals of various species including monkeys, CVO brain regions) is on record as “powerful neurotoxic effects”.

With `O=C(O)C1CN(CCCP(=O)(O)O)CCN1` (centres unmarked) [CPP], in [2], the “EAA antagonist potency vs Quis” value is listed as 0. The “EAA antagonist potency vs NMDA” value in data set [3] is on record as 200. In data set [4], the “EAA antagonist potency vs KA” value is reported as 0.

As to `OC(CCN1CCCC1)(c1ccccc1)C1CCCCC1` (centres unmarked) [procyclidine], in data set [16] (Ser. No. 424,548), the “reduction” value is reported as “effective in reducing the neurotoxicity”. Also, the “EAA antagonist potency vs NMDA” value in [8] (setting [20]) was 67.

Regarding `NC(CCCC(=O)O)C(=O)O` (stereo not drawn) [α-amino adipate], the “EAA antagonist potency vs NMDA” value in data set [8] (setting [19]) was 5.

`O=C(CCCN1CCC(O)(c2ccc(Cl)cc2)CC1)c1ccc(F)cc1` [haloperidol]: in data set [9], the side effects result was “severe side effects such as abnormal motor movements, muscle rigidity, and tremors”; the “anti-emetic effect” value is “only weakly active as anti-emetics”.

As to `C=C(C)[C@H]1CN[C@H](C(=O)O)[C@H]1CC(=O)O` [KA, kainic acid], the “emetic response to KA” value in data set [15] (in the vicinity of 0.5 mg/kg SC, without Kyn) is on record as “All of the animals suffered an emetic response”.

In the case of `OC(CCN1CCCCC1)(c1ccccc1)C1CCCCC1` (centres unmarked) [trihexyphenidyl], in data set [16] (Ser. No. 424,548), the “reduction” value was “effective in reducing the neurotoxicity”.

`CN1[C@@H]2C[C@@H](OC(=O)[C@H](CO)c3ccccc3)C[C@H]1[C@@H]1O[C@@H]12` [scopolamine]: in data set [11], the “effect against motion sickness or vertigo” value was “relatively ineffective unless taken before a boat or airplane ride or other motion begins, or before the onset of vertigo”; the “effect on nausea and vomiting caused by other factors” value was “not effective”.

Regarding `N[C@H](CCCCCP(=O)(O)O)C(=O)O` [D-AP7, D-2-amino-7-phosphonoheptanoate], in data set [1], the BBB penetrability entry is listed as “very low” and the “penetration of blood brain barriers” value is recorded as “do not readily penetrate blood brain barriers”. Further, the “EAA antagonist potency vs NMDA” value in data set [8] (setting [19]) is recorded as 13.

Consider `CCCC(C)C1(CC)C(=O)NC(=S)NC1=O` (centres unmarked) [thiopental], for which the “EAA antagonist potency vs KA” value in data set [5] (setting [20]) is 2. Further, in data set [7] (setting [20]), the “EAA antagonist potency vs Quis” value is on record as 2. Moreover, the “EAA antagonist potency vs NMDA” value in data set [8] (setting [20]) came to 7.

Consider `O=C(O)[C@@H]1C[C@H](CP(=O)(O)O)CCN1` [CGS 19755], for which the “EAA antagonist potency vs Quis” value in data set [2] is 0. In addition, the “EAA antagonist potency vs NMDA” value in [3] is given as 200. In addition, the “EAA antagonist potency vs KA” value in data set [4] is reported as 0.

On to `O=c1[nH]c2cc([N+](=O)[O-])c([N+](=O)[O-])cc2[nH]c1=O` [DNQX, 6,7-dinitro-quinoxaline-2,3-dion], for which, in data set [5] (setting [19]), the “EAA antagonist potency vs KA” value is 20. For the same molecule, in [1], the BBB penetrability result is recorded as “very low” and the “penetration of blood brain barriers” value was “do not penetrate blood-brain barriers”. For the same molecule, in [6], the “block of non-NMDA vs NMDA receptors” value is recorded as “block non-NMDA receptors substantially more powerfully than NMDA receptors” and the “potency compared with kynurenic or 7-chloro-kynurenic acid” value is given as “significantly more powerful”. Besides, the “EAA antagonist potency vs Quis” value in [7] (setting [19]) is given as 40. Besides, the “EAA antagonist potency vs NMDA” value in data set [8] (setting [19]) worked out at 10.

Turning to `OC(CCN1CCCCC1)(c1ccccc1)C1CC2C=CC1C2` (centres unmarked) [biperiden], the “reduction” value in data set [16] (Ser. No. 424,548) is recorded as “effective in reducing the neurotoxicity”.

As for `C=CCC1(C(C)CCC)C(=O)N=C(S)NC1=O` (centres unmarked) [thiamylal], the “EAA antagonist potency vs KA” value in [5] (setting [20]) stood at 3. Further, in data set [7] (setting [20]), the “EAA antagonist potency vs Quis” value is reported as 2. Besides, the “EAA antagonist potency vs NMDA” value in data set [8] (setting [20]) worked out at 13.

On to `CCN(CC)C(C)CN1c2ccccc2Sc2ccccc21` (centres unmarked) [ethopropazine], for which the “EAA antagonist potency vs NMDA” value in [8] (setting [20]) is on record as 40.

Consider `OC(CN1CCC(Cc2ccc(F)cc2)CC1)c1ccc(Cl)cc1` (centres unmarked) [SL 82,0715], for which, in data set [8] (setting [19]), the “EAA antagonist potency vs NMDA” value was 50.

In the case of `CNC1(c2ccccc2Cl)CCCCC1=O` (centres unmarked) [ketamine], the psychotic effects entry in [12] is listed as “psychotic effects”.

The record behind these values is patent US5039528A, “EAA antagonists as anti-emetic drugs” (priority 1989, dated 1991).
